Patent US10906880B2, “Kind of isothiazole oxime ether-containing strobilurin derivatives and its preparation methods and application” (priority 2016, dated 2021)
Several values for one entry are separate records, joined by “and”; a condition that tells them apart may be missing. Equal entries are not always repeated. Where two headings read alike, the source gives them in different places.

Tests used:
Alternaria solani = assay: Fungicide activity, mycelial growth inhibition on PDA plate; type: cell-based; settings: for inhibition at 50 µg/mL: Alternaria solani, read-out: Fungicidal activity inhibition, AS
Cercospora arachidicola = assay: as above; type: cell-based; settings: for inhibition at 50 µg/mL: Mycosphaerella arachidis, read-out: Fungicidal activity inhibition, CA
Gibberella zeae = assay: microbe, parasite or virus in culture; type: cell-based; settings: for Fungicidal activity inhibition, GZ: 50 μg/mL, G. zeae
Physalospora piricola = assay: Fungicide activity, mycelial growth inhibition on PDA plate; type: cell-based; settings: for inhibition at 50 µg/mL: 50 μg/mL, P. piricola, read-out: Fungicidal activity inhibition, PP
Botrytis cinerea = assay: as above; type: cell-based; settings: for inhibition at 50 µg/mL: Botrytis cinerea, read-out: Fungicidal activity inhibition, BC
Sclerotinia sclerotiorum = assay: as above; type: cell-based; settings: for inhibition at 50 µg/mL: Sclerotinia sclerotiorum, read-out: Fungicidal activity inhibition, SS
Rhizoctonia cerealis = assay: as above; type: cell-based; settings: for inhibition at 50 µg/mL: Ceratobasidium cereale, read-out: Fungicidal activity inhibition, RC
Pellicularia sasakii = assay: as above; type: cell-based; settings: for inhibition at 50 µg/mL: 50 μg/mL, P. sasakii, read-out: Fungicidal activity inhibition, PS
[1] = tested on: Phytophthora infestans (Mont) de Bary; assay: microbe, parasite or virus in culture; type: cell-based; settings: for Fungicidal activity inhibition, PI: 50 μg/mL, P. infestans (Mont.) de Bary; for inhibition at 50 µg/mL: Phytophthora infestans, read-out: Fungicidal activity inhibition, PI, 50 μg/mL, P. infestans (Mont.) de Bary
TMV [2] = assay: Anti-TMV activity on tobacco, curative mode; type: in vivo, tobacco mosaic virus; settings: 100 μg/mL, tobacco; for inhibition at 100 µg/mL: Tobacco mosaic virus, read-out: Anti-TMV activity inhibition, Curative effect
TMV [3] = assay: Anti-TMV activity on tobacco, inactivation mode; type: in vivo, tobacco mosaic virus; settings: 100 μg/mL; for inhibition at 100 µg/mL: Tobacco mosaic virus, read-out: Anti-TMV activity inhibition, Inactivation effect
TMV [4] = assay: Anti-TMV activity on tobacco, protection mode; type: in vivo, tobacco mosaic virus; settings: 100 μg/mL; for inhibition at 100 µg/mL: Tobacco mosaic virus, read-out: Anti-TMV activity inhibition, Protection effect
TMV [5] = assay: Anti-TMV activity on tobacco, induction mode (systemic acquired resistance); type: in vivo, tobacco mosaic virus; settings: 100 μg/mL; for inhibition at 100 µg/mL: Tobacco mosaic virus, read-out: Anti-TMV activity inhibition, Induction effect

Row | Compound | Fungicidal activity inhibition, GZ (Gibberella zeae) | inhibition at 100 µg/mL (TMV [2]) [%] | inhibition at 100 µg/mL (TMV [3]) [%] | inhibition at 100 µg/mL (TMV [4]) [%] | inhibition at 100 µg/mL (TMV [5]) [%] | inhibition at 50 µg/mL (Alternaria solani; 50 μg/mL, A. solani) [%] | inhibition at 50 µg/mL (Alternaria solani) [%] | inhibition at 50 µg/mL (Cercospora arachidicola; 50 μg/mL, C. arachidicola) [%] | inhibition at 50 µg/mL (Cercospora arachidicola) [%] | inhibition at 50 µg/mL (Physalospora piricola) [%] | inhibition at 50 µg/mL (Botrytis cinerea; 50 μg/mL, B. cinerea) [%] | inhibition at 50 µg/mL (Sclerotinia sclerotiorum; 50 μg/mL, S. sclerotiorum) [%] | inhibition at 50 µg/mL (Rhizoctonia cerealis; 50 μg/mL, R. cerealis) [%] | inhibition at 50 µg/mL (Rhizoctonia cerealis) [%] | inhibition at 50 µg/mL (Pellicularia sasakii) [%] | melting point [°C] | other results
1 | CO/C=C(/C(=O)OC)c1ccccc1Oc1cc(Oc2ccccc2C#N)ncn1 [Azoxystrobin, reference compound] | 71.43% | – | – | – | – | – | – | – | – | – | – | – | – | – | – | – | Fungicidal activity inhibition, AS (Alternaria solani): 75.00%; Fungicidal activity inhibition, CA (Cercospora arachidicola): 55.56%; Fungicidal activity inhibition, PP (Physalospora piricola): 100%; Fungicidal activity inhibition, BC (Botrytis cinerea): 91.18%; Fungicidal activity inhibition, SS (Sclerotinia sclerotiorum): 88.10%; Fungicidal activity inhibition, RC (Rhizoctonia cerealis): 84.06%; Fungicidal activity inhibition, PS (Pellicularia sasakii): 80.77%; Fungicidal activity inhibition, PI [1]: 46.88%
2 | CNC(=O)/C(=N/OC)c1cc(C)c(C)cc1CO/N=C(\C)c1cc(Cl)ns1 [CL04-00, reference compound] | 29.63% and 50.00% | 27.3 ± 1.24 | 20.7 ± 2.1 | 26.3 ± 2.47 | 20.3 ± 2.16 | – | – | – | – | – | – | – | – | – | – | – | Anti-TMV activity inhibition, Curative effect (TMV [2]): 26.39 ± 1.22%; Anti-TMV activity inhibition, Inactivation effect (TMV [3]): 19.68 ± 1.10%; Anti-TMV activity inhibition, Protection effect (TMV [4]): 25.30 ± 1.47%; Anti-TMV activity inhibition, Induction effect (TMV [5]): 19.34 ± 1.14%
3 | CO/N=C(/C(=O)OC)c1ccccc1CO/N=C(\C)c1snc(Cl)c1Cl [CL04-15A] | – | 1.52 ± 0.62 | – | > 40 | – | 47.1 | > 30 | 50 | > 30 | 53 | 100 | 100 | 85.5 | > 50 | 76.9 | 73 to 75 | inhibition at 50 µg/mL (Gibberella zeae; Fusarium graminearum, read-out: Fungicidal activity inhibition, GZ, 50 μg/mL, G. zeae): > 30%
4 | CO/N=C(/C(=O)OC)c1ccccc1CO/N=C(C)/C=C/c1snc(Cl)c1Cl [CL04-17] | – | > 30 | > 30 | 29.3 ± 1.31 | > 30 | 35.7 | > 30 | 50 | > 30 | 47.8 | 100 | 86.7 | 81.5 | > 50 | 58.8 | 105 to 107 | inhibition at 50 µg/mL (Sclerotinia sclerotiorum): > 40%; inhibition at 50 µg/mL [1]: > 40%
5 | C#CCNC(=O)/C(=N/OC)c1ccccc1CO/N=C(\C)c1snc(Cl)c1Cl [CL04-22B] | 100% | 1.52 ± 0.62 | > 30 | > 40 | – | 28.6 | – | 35.7 | > 30 | 49.1 | 51.9 | 100 | 86.9 | > 50 | 73.3 | 120 to 122 | inhibition at 50 µg/mL (Botrytis cinerea): > 45%
6 | CNC(=O)/C(=N/OC)c1ccccc1CO/N=C(\C)c1snc(Cl)c1Cl [CL04-22D] | 100% | 32.8 ± 3.36 | 4.44 ± 0.85 | > 40 | – | 47.5 | > 30 | 87.5 | – | 80.8 | 100 | 100 | 100 | – | 89.2 | 79 to 81 | Fungicidal activity inhibition, PI [1]: 100%
7 | CO/N=C(/C(=O)NC(C)(C)CSC)c1ccccc1CO/N=C(\C)c1snc(Cl)c1Cl [CL04-22E] | – | 20.2 ± 5.58 | > 30 | 22.7 ± 2.05 | 12.7 ± 6.05 | 27.3 | – | 45.8 | > 30 | 42.9 | 62.5 | 29.4 | 76 | > 50 | 21.2 | – | inhibition at 50 µg/mL (Botrytis cinerea): > 45%; inhibition at 50 µg/mL [1]: 28.6%
